Reference: patent US20260027068A1, “METHODS OF ADM[…]-KETAMINE” (Perception Neuroscience, Inc., priority 2022, published 2026)

Columns and labels:
[1] = tested on: subjects with TRD; assay: Clinician-Administered Dissociative States Scale (CADSS)
Protocol: (§1) The Investigational Medicinal Product (IMP) R(−)-ketamine hydrochloride in sterile water for intravenous injection was investigated as an […] treatment of TRD. The International Union of Pure and Applied Chemistry (IUPAC) name is of the IMP is (2R)-2-(2-chlorophenyl)-2-(methylamino)cyclohexan-1-one. Subjects received the solution at either 30 mg or 60 mg dose, or a placebo. The IMP or placebo was administered on Day 1 as a single IV infusion via an electronic infusion pump over 40 minutes. The duration of study participation for each subject was up to 29 days including a screening period, a 3-day in-clinic visit, and 2 follow-up visits. 101 subjects were enrolled in approximately 20 study centers in the EU and the US.
The CADSS was to assess the alertness or dissociative state of subjects administered R(−)-ketamine. The study staff evaluated the subject's degree of dissociation by administering the CADSS questionnaire pre-dose; at 40 minutes post-dose (at EoI); and at 2 and 4 hours post-dose.

[2] = tested on: subjects with TRD; assay: Modified Observer's Assessment of Alertness/Sedation (MOAA/S); conditions: 30 mg
Protocol: as §1
The MOAA/S will were to determine if R(−)-ketamine causes the side effect of sedation and to what degree. Sedation was evaluated by the study staff using the MOAA/S. The observer recorded the subject's alertness pre-dose, every 20 minutes for first 2 hours post-dose, and at 4 and 6 hours after the start of the infusion.

[3] = 30 mg, 40 min post infusion start, n 33
[4] = 30 mg, 2 hours post infusion start, n 33
[5] = 30 mg, 4 hours post infusion start, n 33
[6] = 30 mg, 6 hours post infusion start, n 10
[7] = 30 mg, to 40 min post infusion start, n 33
[8] = 30 mg, to 2 hours post infusion start, n 33
[9] = 30 mg, to 4 hours post infusion start, n 33
[10] = 60 mg, 40 min post infusion start, n 35
[11] = 60 mg, 2 hours post infusion start, n 35
[12] = 60 mg, 4 hours post infusion start, n 34
[13] = 60 mg, 6 hours post infusion start, n 11
[14] = 60 mg, to 40 min post infusion start, n 35
[15] = 60 mg, to 2 hours post infusion start, n 35
[16] = 60 mg, to 4 hours post infusion start, n 34
[17] = 10 min post start of infusion, n 10
[18] = 20 min post start of infusion, n 33
[19] = 30 min post start of infusion, n 10
[20] = 40 min post start of infusion, n 33
[21] = 50 min post start of infusion, n 10
[22] = 1 hour 10 min post start of infusion, n 10
[23] = 1 hour 20 min post start of infusion, n 33
[24] = 1 hour 30 min post start of infusion, n 10
[25] = 1 hour 40 min post start of infusion, n 33
[26] = 1 hour 50 min post start of infusion, n 10
[27] = 1 hour post start of infusion, n 33
[28] = to 1 hour 10 min post-start, n 10

CN[C@@]1(c2ccccc2Cl)CCCCC1=O [PCN 101]
CADSS score, Mean [1, 3]: 3.9 | CADSS score, Median [1, 3]: 2.0 | CADSS score, Mean [1, 4]: 1.1 | CADSS score, Median [1, 4]: 0.0 | CADSS score, Mean [1, 5]: 0.4 | CADSS score, Median [1, 5]: 0.0 | CADSS score, Mean [1, 6]: 0.0 | CADSS score, Median [1, 6]: 0.0 | CADSS change from baseline, Mean [1, 7]: 3.9 | CADSS change from baseline, Median [1, 7]: 2.0 | CADSS change from baseline, Mean [1, 8]: 1.1 | CADSS change from baseline, Median [1, 8]: 0.0 | CADSS change from baseline, Mean [1, 9]: 0.4 | CADSS change from baseline, Median [1, 9]: 0.0 | CADSS change from baseline, Mean ([1]; 30 mg, to 6 hours, n 10): −0.1 | CADSS change from baseline, Median ([1]; 30 mg, to 6 hours, n 10): 0.0 | CADSS score, Mean [1, 10]: 4.3 | CADSS score, Median [1, 10]: 0.0 | CADSS score, Mean [1, 11]: 1.1 | CADSS score, Median [1, 11]: 0.0 | CADSS score, Mean [1, 12]: 0.3 | CADSS score, Median [1, 12]: 0.0 | CADSS score, Mean [1, 13]: 0.0 | CADSS score, Median [1, 13]: 0.0 | CADSS change from baseline, Mean [1, 14]: 4.0 | CADSS change from baseline, Median [1, 14]: 0.0 | CADSS change from baseline, Mean [1, 15]: 0.8 | CADSS change from baseline, Median [1, 15]: 0.0 | CADSS change from baseline, Mean [1, 16]: −0.0 | CADSS change from baseline, Median [1, 16]: 0.0 | CADSS change from baseline, Mean ([1]; 60 mg, to 6 hours, n 11): 0.0 | CADSS change from baseline, Median ([1]; 60 mg, to 6 hours, n 11): 0.0 | MOAA/S score, Mean [2, 17]: 5.0 | MOAA/S score, Median [2, 17]: 5.0 | MOAA/S score, Mean [2, 18]: 4.9 | MOAA/S score, Median [2, 18]: 5.0 | MOAA/S score, Mean [2, 19]: 4.9 | MOAA/S score, Median [2, 19]: 5.0 | MOAA/S score, Mean [2, 20]: 4.8 | MOAA/S score, Median [2, 20]: 5.0 | MOAA/S score, Mean [2, 21]: 4.9 | MOAA/S score, Median [2, 21]: 5.0 | MOAA/S score, Mean [2, 22]: 5.0 | MOAA/S score, Median [2, 22]: 5.0 | MOAA/S score, Mean [2, 23]: 4.8 | MOAA/S score, Median [2, 23]: 5.0 | MOAA/S score, Mean [2, 24]: 5.0 | MOAA/S score, Median [2, 24]: 5.0 | MOAA/S score, Mean [2, 25]: 4.9 | MOAA/S score, Median [2, 25]: 5.0 | MOAA/S score, Mean [2, 26]: 5.0 | MOAA/S score, Median [2, 26]: 5.0 | MOAA/S score, Mean [2, 27]: 4.8 | MOAA/S score, Median [2, 27]: 5.0 | MOAA/S score, Mean ([2]; 2 hours, n 33): 5.0 | MOAA/S score, Median ([2]; 2 hours, n 33): 5.0 | MOAA/S score, Mean ([2]; 4 hours, n 31): 5.0 | MOAA/S score, Median ([2]; 4 hours, n 31): 5.0 | MOAA/S score, Mean ([2]; 6 hours, n 31): 5.0 | MOAA/S score, Median ([2]; 6 hours, n 31): 5.0 | MOAA/S change from baseline, Mean ([2]; to 10 min post-start, n 10): 0.0 | MOAA/S change from baseline, Median ([2]; to 10 min post-start, n 10): 0.0 | MOAA/S change from baseline, Mean ([2]; to 20 min post-start, n 33): −0.1 | MOAA/S change from baseline, Median ([2]; to 20 min post-start, n 33): 0.0 | MOAA/S change from baseline, Mean ([2]; to 30 min post-start, n 10): −0.1 | MOAA/S change from baseline, Median ([2]; to 30 min post-start, n 10): 0.0 | MOAA/S change from baseline, Mean ([2]; to 40 min post-start, n 33): −0.2 | MOAA/S change from baseline, Median ([2]; to 40 min post-start, n 33): 0.0 | MOAA/S change from baseline, Mean ([2]; to 50 min post-start, n 10): −0.1 | MOAA/S change from baseline, Median ([2]; to 50 min post-start, n 10): 0.0 | MOAA/S change from baseline, Mean [2, 28]: 0.0 | MOAA/S change from baseline, Median [2, 28]: 0.0
